Test results: US11773127B2, “Compounds and methods for treating bacterial infections” (Washington University, priority 2017, dated 2023)
≈ marks a conversion by molar mass, not a printed value. Read-outs that look alike come from different tables or passages of the source.

How the values were obtained:
FmlHLD [1] = biological target: T1, FmlHLD (Escherichia coli, UniProt P77588); assay: biochemical; assay type: binding, E. coli; conditions: for Kd: immobilized ser-TF
T1 construct: 6xHis (C); made in house; host or cells: E. coli C600, periplasm, pTRC99a
T1 sequence (P77588 25-182): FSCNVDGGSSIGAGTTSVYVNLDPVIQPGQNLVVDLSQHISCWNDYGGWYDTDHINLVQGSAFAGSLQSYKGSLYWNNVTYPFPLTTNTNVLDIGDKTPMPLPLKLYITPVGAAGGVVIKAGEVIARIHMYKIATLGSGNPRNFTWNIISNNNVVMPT
Excerpt: Bio-layer interferometry (BLI) was used to quantitate the binding affinity of select galactosides to FmlH.
Thereafter, pins were dipped in PBS for 120 s and transferred to protein samples (varying concentration of FmlHLD or fixed concentration of FmlHLD with varying concentration of galactoside compounds) for association for 300-600 s.

FmlHLD [2] = biological target: T1, FmlHLD; assay: biochemical; assay type: binding, E. coli; conditions: for inhibitory potency against FmlH, in words: ELISA-based competition assay
Summary of the method: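 Sialidase-treated bovine submaxillary mucin (ds-BSM) coated wells, BSA-blocked, then biotinylated FmlH^LD (20 μg/mL) with or without compound for 1 h at room temperature. Bound lectin detected by streptavidin-HRP/TMB, A450.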

CFT073 = assay: Murine chronic UTI (chronic cystitis) model, bacterial titers in bladder and kidney; assay type: in vivo, C3H/HeN mice; conditions: 50 mg/kg transurethral, 6 hours post treatment, relative to vehicle control
Protocol: To assess therapeutic efficacy, galactosides were evaluated for their ability to reduce bacterial burdens in the urinary tracts of C3H/HeN mice during chronic UTI. 7-8 week old female C3H/HeN mice were obtained from Envigo (Indianapolis, IN). Mice were anesthetized and inoculated via transurethral catheterization with 50 μl of CFT073 bacterial suspension (˜1-2*10^8 CFU in total) in phosphate-buffered saline (PBS). Chronic cystitis in C3H/HeN mice was defined as urine titers of >10^4 CFU/ml lasting at least two to four weeks, as well as bladder inflammation and edema at euthanasia. […] Accordingly, high levels of CFT073 kidney colonization were also observed in control (vehicle-treated) animals. […] Compounds tested were: 29β-NAc (50 mg/kg), mannoside 4Z269 (a type 1 pilus adhesin FimH inhibitor, 50 mg/kg), or 29β-NAc+4Z269. Mice were sacrificed 6 hours post treatment and bacteria colonizing the bladder or kidney were plated for quantification. Data are presented in FIG. 9, panels A and B, as bacterial titers of CFT073 in each organ in each condition. The horizontal lines represent the means. Asterisks indicate significance (*P<0.05, **P<0.01, ***P<0.001, ****P<0.0001, two-tailed Mann-Whitney U test). Each condition was measured in two or three independent experiments with 4 or 5 mice per group per experiment.

FmlHLD [3] = biological target: T1, FmlHLD; assay: Immunofluorescence of FmlHLD binding to human bladder and kidney tissue; set-up: species or system E. coli; conditions: 50 μg/ml FmlHLD WT incubated with 100 μM compound
Protocol: The relevance of FmlH and FmlH-targeting galactosides in human UTI was assessed by performing immunofluorescence analysis of wild-type (WT) FmlHLD or mutant (K132Q) FmlHLD binding to human bladder and non-malignant kidney biopsied tissue in the presence or absence of 29β-NAc.
Frozen, de-identified human bladder and kidney sections were obtained from the Tissue Procurement Core and stored stably at −80° C. These tissue section slides were removed from the freezer and allowed to thaw at room temperature for 10-20 min. After applying a hydrophobic barrier pen around the tissue, slides were rehydrated in 200 μl buffer (5% BSA, 0.2% Triton X-100 in PBS) for 10 min. Buffer was gently aspirated and slides were blocked for 1 hr at room temperature with 200 μl buffer. Thereafter, buffer was gently aspirated and slides were incubated with 200 μl sample overnight at 4° C. Samples diluted in buffer included 50 μg/ml FmlHLD wild-type (WT), 50 μg/ml FmlHLD K132Q, and 50 μg/ml FmlHLD WT incubated with 100 μM 29β-NAc. Samples were gently aspirated and slides were washed three times in buffer for 5 min each. Next, slides were incubated with a mouse anti-FmlH polyclonal antibody (1:500 dilution in buffer) for 1 hr at room temperature. […]

[4] = Rat pharmacokinetics, plasma and urine, IV and PO; assay type: in vivo
Protocol: In this example, the concentration of compounds 3086 and 3090 in rat plasma and urine following either a 10 mg/kg oral dose (PO; circular dots) or a 3 mg/kg intravenous dose (IV; square dots) was determined (FIG. 16, panel A (3086) and panel B (3090)). […] Thus, the metabolic stability of these compounds and clearance of these compounds has no relation to the permeability (oral or otherwise) of compounds. The highly polar nature of these molecules containing the sugar GalNAc and multiple polar functionalities precludes their permeability in the gut.

[5] = Stability in simulated intestinal fluid (SIF); assay type: in vitro ADME
Protocol: (§1) These compounds were assessed for their stability in simulated gastric fluid (SGF), simulated intestinal fluid (SIF), mouse liver microsomes, and blood plasma (Table 7). […] These findings are consistent with our earlier characterization of FimH antagonists (mannosides).

Kinetic solubility = assay type: physicochemical
[6] = Stability in simulated gastric fluid (SGF); assay type: in vitro ADME
Protocol: as §1

Mouse plasma stability = assay type: in vitro ADME
Protocol: as §1

[7] = Mouse liver microsome stability; assay type: in vitro ADME
Protocol: as §1

[8] = biological target: T2, FmlH lectin domain (FmlH^LD; first 182 amino acids of CFT073 FmlH = signal sequence and lectin domain, C-terminal 6×-his tag, wild-type, biotinylated) (Escherichia coli, UniProt A0A0H2V7F6); assay: ELISA-based competition assay: inhibition of biotinylated FmlH lectin domain binding to surface-immobilized desialylated bovine submaxillary mucin (ds-BSM); set-up: species or system E. coli (uropathogenic, urosepsis isolate CFT073); conditions: read-out: FmlH (FmlH^LD) lectin domain (LD) IC50, FIG. 14, 20 μg/mL biotinylated FmlH^LD, compounds serially diluted 2×, 1 hour at room temperature, ds-BSM coated wells, absorbance 450 nm
T2 construct: biotinylated for ELISA; wild type
T2 sequence (A0A0H2V7F6 entry or part of it): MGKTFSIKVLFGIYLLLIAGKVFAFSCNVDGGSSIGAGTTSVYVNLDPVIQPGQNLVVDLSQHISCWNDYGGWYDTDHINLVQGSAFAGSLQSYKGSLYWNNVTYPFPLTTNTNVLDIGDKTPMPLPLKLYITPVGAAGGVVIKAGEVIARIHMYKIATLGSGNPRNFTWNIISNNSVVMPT
Protocol: Thereafter, wells were incubated with 200 μl blocking buffer (PBS+1% BSA) for 2 hours at 23° C., followed by incubation with 100 μl biotinylated FmlHLD diluted in blocking buffer to 20 μg/ml in the presence or absence of the tested compounds for 1 hr at 23° C. After washing 3× with PBS+0.05% TWEEN-20, 100 μl Streptavidin-HRP conjugate (BD Biosciences; 1:2000 dilution in blocking buffer) was added to each well for 1 hr at 23° C. After a final round of washing, plates were developed with 100 μl Tetramethylbenzidine (TMB, BD Biosciences) substrate, quenched within 1-2 min with 50 μl […], and absorbance measured at 450 nm.
Briefly, 1 μg bovine submaxillary mucin (Sigma) in 100 uL PBS were incubated with Immulon 4HBX 96-well plates overnight prior to treatment with 1 mU Arthrobacter ureafaciens sialidase for 1 hour at 37° C. to remove terminal sialic acid sugars. Wells were then blocked with 200 μL PBS+1% BSA for 2 hours at room temperature. Biotinylated FmlH^LD was diluted to 20 μg/mL in blocking buffer and incubated in the presence or absence of compounds serially diluted 2× down eight rows for 1 hour at room temperature. […] Total bound portion concentration was measured by the absorbance at 450 nm. IC50s were determined using the Graphpad Prism software.

[9] = Mouse pharmacokinetics, IP injection; conditions: 20 mg/kg IP
Protocol: These studies were conducted via 20 mg/kg intraperitoneal (IP) injection to inform planned future IP studies in murine studies of chronic UTI, which require a single IP dose of galactoside to persist in the plasma for 6 hours prior to measurement of bladder bacterial burdens (FIG. 17)^22.

Structure (SMILES): CC(=O)N[C@H]1[C@H](Oc2ccccc2-c2cccc(C(=O)O)c2)O[C@H](CO)[C@H](O)[C@@H]1O [Compound 29β-NAc, 2′-(2-acetamido-2-deoxy-β-D-galactopyranosyloxy)-[1,1′-Biphenyl]-3-carboxylic acid]
- enhancement in binding affinity relative to Gal (FmlHLD [1]; BLI Kd ratio): ~7,800 fold
- Kd (FmlHLD [1]; Kd (μM), inhibitory constants, fixed FmlHLD, varying galactoside in solution): 0.089 µM
- Kd (FmlHLD [1]; Kd, galactoside in solution): ~0.09 µM
- inhibitory potency against FmlH, in words (FmlHLD [2]): most potent
- IC50 (FmlHLD [2]; IC50 (μM), Table 5, Gal and GalNAc inhibition of FmlH): 0.64 µM
- inhibition at 1 µM (FmlHLD [2]; read-out: PI1 (percent inhibition), galactoside at 1 μM, mean with standard error of the mean): 54.7 ± 2.8%
- inhibition at 10 µM (FmlHLD [2]; read-out: PI10 (percent inhibition), galactoside at 10 μM, mean with standard error of the mean): 93%
- inhibition at 100 µM (FmlHLD [2]; read-out: PI100 (percent inhibition), galactoside at 100 μM, mean with standard error of the mean): 99.5 ± 2.2%
- bacterial titers of CFT073 in the bladder (CFT073): significant reduction of CFT073 in the bladders
- bacterial titers of CFT073 in the kidney (CFT073): even greater clearance of CFT073 from the kidneys
- FmlHLD binding to human kidney tissue (FmlHLD [3]): prevented binding to human kidney tissue

Structure (SMILES): CC(=O)N[C@@H]1[C@H](Oc2cccc(C(F)(F)F)c2-c2cccc(NS(C)(=O)=O)c2)OC(CO)[C@H](O)[C@@H]1O (stereo partly drawn) [Compound 3090, N-((2S,3S,4R,5R)-4,5-dihydroxy-6-(hydroxymethyl)-2-((3′-(methylsulfonamido)-6-(trifluoromethyl)-[1,1′-biphenyl]-2-yl)oxy)tetrahydro-2H-pyran-3-yl)acetamide]
- bioavailability ([4]; in vivo, rat, 10 mg/kg PO vs 3 mg/kg IV, read-out: oral bioavailability (F)): < 1%
- renal clearance to the urine ([4]; rat): low renal clearance to the urine
- half-life ([4]; rat plasma, 10 mg/kg PO or 3 mg/kg IV): 1.16 h
- clearance ([4]; rat plasma, 10 mg/kg PO or 3 mg/kg IV, read-out: clearance (Cl)): 57 mL/min/kg
- SIF % remaining 2 h [5]: 91.9%
- solubility kinetic (Kinetic solubility; kinetic from dmso stock): 197 µM (≈ 105 µg/mL)
- inhibitory potency against FmlH, in words (FmlHLD [2]): highest potency of the compounds tested
- IC50 (FmlHLD [2]; IC50): 0.085 µM
- SGF % remaining 6 h [6]: 89.25%
- Mouse plasma % remaining 2 h (Mouse plasma stability): 92.2%
- Mouse liver microsomes (t1/12 min) [7]: >145 min

Structure (SMILES): CC(=O)N[C@H]1[C@H](Oc2ccccc2-c2cccc(C(=O)O)c2)O[C@H](CO)[C@H](O)[C@@H]1O [D00014 row 1, 2′-(2-acetamido-2-deoxy-β-D-galactopyranosyloxy)-[1,1′-Biphenyl]-3-carboxylic acid]
- IC50 [8]: 650 nM

Structure (SMILES): CC(=O)N[C@H]1[C@H](Oc2cccc(C)c2-c2cccc(NS(C)(=O)=O)c2)O[C@H](CO)[C@H](O)[C@@H]1O [Compound 3084, N-((2S,3R,4R,5R,6R)-4,5-dihydroxy-6-(hydroxymethyl)-2-((6-methyl-3′-(methylsulfonamido)-[1,1′-biphenyl]-2-yl)oxy)tetrahydro-2H-pyran-3-yl)acetamide]
- SIF % remaining 2 h [5]: 100.00%
- solubility kinetic (Kinetic solubility): 195 µM (≈ 93.7 µg/mL)
- IC50 (FmlHLD [2]; IC50): 0.12 µM
- IC50 (FmlHLD [2]; IC50 equated to a concentration, conversion of IC50 of 120 nM): 0.12 µM
- Cmax [9]: 7897 ng/mL
- calculated AUC [9]: 6300 ng·h/mL
- compound exposure at 8 h [9]: moderate compound exposure
- half-life, t1/2 [9]: 1.13 h
- SGF % remaining 6 h [6]: 100.00%
- Mouse plasma % remaining 2 h (Mouse plasma stability): 100.00%
- Mouse liver microsomes (t1/12 min) [7]: >145 min
